Measurements as given in US7615533B2, “TPO peptide compounds for treatment of anemia” (Janssen Pharmaceutica N.V., priority 2004, dated 2009).
Non-standard residues stand in square brackets, D forms with d. No end group written: not given here. 2Nal = N[C@@H](Cc1ccc2ccccc2c1)C(=O)O; Sar = CNCC(=O)O

Key:
carboplatin treated mice [1] = assay: Example 1: increasing doses one day after carboplatin, anemia in mice; type: in vivo, BALB/c mouse
Protocol: (§1) The effects of PEGylated TPO Compound No. 1 on mice treated with carboplatin were observed. For all examples herein, a 10 mg/ml stock solution of PEGylated TPO Compound No. 1 was prepared in sterile saline. For mixing, the preparation was placed on a gyratory shaker for 15 mm. at 200 rpm. This method was used to dissolve PEGylated TPO Compound No. 1 without foaming. The stock was filtered using a GV Millex (0.22 μm) filter. Dosing solutions were then prepared from this stock using sterile saline. The stock and dosing solutions were prepared fresh on the day of use.
The effect of PEGylated TPO Compound No. 1 on the duration and severity of anemia following treatment of mice with carboplatin as determined by changes in hemoglobin levels, red blood cell count and hematocrit, was observed. For this study, increasing amounts of PEGylated TPO Compound No. 1 were administered to mice one day following a carboplatin dose to characterize a possible dose-dependent effect on various red blood cell parameters.
The groups of mice were treated with either carboplatin or vehicle (Phosphate Buffered Saline, PBS) by intraperitoneal administration on Days −2 and −1 as delineated below. The optimal dose of carboplatin used to induce thrombocytopenia in the BALB/c mouse strain was previously determined to be a fractionated total dose of 120 mg/kg given as two consecutive daily injections (i.e., 2×60 mg/kg). One day following the second dose of carboplatin, groups of mice were treated with PEGylated TPO Compound No. 1 or vehicle (sterile saline, SS, preservative-free 0.90% sodium chloride) by IV (bolus) injection as delineated in Table 1. The dose was administered on a per-weight basis (100 μl/10 g body weight).
(§2) On Days 5, 7, 9 and 11, five mice in each test group were weighed and then euthanised using CO2-asphyxiation and exsanguinations via cardiac puncture. The blood samples were transferred to separate EDTA (lavender-top) microcontainers for hematologic evaluation. Groups of control mice (5) were processed on Days 5 and 11. The data are presented graphically as group means +SEM.

carboplatin treated mice [2] = assay: Example 2: dosing before and/or after carboplatin, hematological parameters in mice; type: in vivo, BALB/c mouse
Protocol: as §1
The possibility that PEGylated TPO Compound No. 1 may sensitize bone marrow hematopoietic stem cells of mice to the toxic effects of carboplatin treatment was examined. For this study, a dose of PEGylated TPO Compound No. 1 was administered to the mice seven days prior to the carboplatin dose or immediately after carboplatin treatment. An additional group was treated with PEGylated TPO Compound No. 1 both prior to and after carboplatin administration. The effect of these dosing regimens on hematological parameters was also observed.
The groups of mice were treated with either carboplatin or vehicle (Phosphate Buffered Saline, PBS) by ip administration on Days 7 and 8 as delineated below. The optimal dose of carboplatin used to induce thrombocytopenia in the BALB/c mouse strain was previously determined to be a fractionated total dose of 120 mg/kg given as two consecutive daily injections (i.e., 2×60 mg/kg). Seven days prior to the first carboplatin dose or one (1) hour after the second dose of carboplatin, groups of mice were treated with PEGylated TPO Compound No. 1 (300 μg/kg) or vehicle (sterile saline, SS, preservative-free 0.9% sodium chloride) by IV (bolus) injection as delineated in Table 2. An additional group was treated with PEGylated TPO Compound No. 1 both before (Day 0) and after (Day 8, t=1 h) the carboplatin dose. All dosing was performed on a per-weight basis (100 μl/10 g body weight).
as §2, with “Days 14, 18, 22” for “Days 5, 7, 9”, “and 26,” for “and 11,”, “and exsanguination” for “and exsanguinations”, “for hematological” for “for hematologic”, “Days 14” for “Days 5”, “and 26.” for “and 11.”

carboplatin treated mice [3] = assay: Example 3: dosing at various times after carboplatin, anemia in mice; type: in vivo, BALB/c mouse
Protocol: as §1
The effect of PEGylated TPO Compound No. 1 on the duration and severity of anemia following dosing regimens in which PEGylated TPO Compound No. 1 is administered at various times following the carboplatin treatment was observed. For this study, an amount of PEGylated TPO Compound No. 1 was administered to mice, one (1) hour, one (1) day or four (4) days following a carboplatin dose.
The groups of mice were treated with either carboplatin or vehicle (Phosphate Buffered Saline, PBS) by ip administration on Days −1 and 0 as delineated below. The optimal dose of carboplatin used to induce thrombocytopenia in the BALB/c mouse strain was previously determined to be a fractionated total dose of 120 mg/kg given as two consecutive daily injections (i.e., 2×60 mg/kg). One hour (Day 0), one day (Day 1) or four days (Day 4) following the second dose of carboplatin, groups of mice were treated with PEGylated TPO Compound No. 1 (300 μg/kg) or vehicle (sterile saline, SS, preservative-free 0.9% sodium chloride) by IV (bolus) injection as delineated in Table 3. The dose was administered on a per-weight basis (100 μl/10 g body weight).
as §2, with “6, 8, 10 & 12,” for “5, 7, 9 and 11,”, “hematological” for “hematologic”, “6 & 12.” for “5 and 11.”

carboplatin treated mice [4] = assay: Example 5: two rounds of high-dose carboplatin, hematocrit and survival of mice; type: in vivo, mouse; settings: between days 4 and 18
Protocol: as §1
Groups of mice were treated with two rounds of the chemotherapeutic agent (carboplatin) ten days apart, with each round consisting of two consecutive days of carboplatin (i.e., 70 mg/kg/day administered on Days −1 & 0 and Days 10 & 11) as delineated below. The dose of carboplatin utilized for these survival studies exceeded the maximal tolerated dose for mice (i.e., 120 mg/kg; administered as 60 mg/kg/day on 2 consecutive days). One hour following the second dose of carboplatin in each round (i.e., Day 0 and 11) mice were treated with PEGylated TPO Compound No. 1 (100 μg/kg) or vehicle (sterile saline, SS, preservative-free 0.9% sodium chloride) by IV (bolus) injection as delineated below. The dose was administered on a per weight basis (100 μl/10 g body weight). […]

Compound | carboplatin-associated decreases in RBC count and hematocrit (carboplatin treated mice [1]; 300, 1000, 3000 μg/kg iv one day after carboplatin, no statistical evaluation) | carboplatin-induced decrease in hemoglobin levels (carboplatin treated mice [1]; all doses (300, 1000, 3000 μg/kg iv, one day after carboplatin 2×60 mg/kg ip), by Day 11) | body weight after carboplatin (carboplatin treated mice [1]; all doses tested, 11-Day study period) | altered appearance and behavior (hunched, flaccid, soiled anogenital areas) (carboplatin treated mice [1]; appeared to be dose-dependent) | carboplatin-induced changes in erythrocyte parameters (carboplatin treated mice [2]; 300 μg/kg iv on Day 0 (only), seven days prior to carboplatin) | carboplatin-induced decreases in hemoglobin levels, RBC counts and hematocrits (carboplatin treated mice [2]; 300 μg/kg iv on Day 8 (1 hour after second carboplatin) without or with additional dose on Day 0) | body weight between Days 7 and 26 (carboplatin treated mice [2]; carboplatin plus various co-treatments, 300 μg/kg iv, no statistical analysis) | onset of signs (hunched, unkempt) (carboplatin treated mice [2]; treatment on Day 8 without or with additional treatment on Day 0) | severity and duration of signs (hunched, unkempt) (carboplatin treated mice [2]; treatment on Days 0 and 8) | carboplatin-induced decreases in hemoglobin levels, RBC counts and hematocrits (carboplatin treated mice [3]; 300 μg/kg iv on Day 0 (1 hour after carboplatin) and on Day 1) | weight loss associated with carboplatin treatment (carboplatin treated mice [3]; 300 μg/kg iv on Day 0, Day 1 or Day 4, no statistical analysis) | carboplatin-induced changes in erythrocyte parameters (carboplatin treated mice [3]; 300 μg/kg iv on Day 4) | onset, frequency or severity of signs (hunched, flaccid) (carboplatin treated mice [3]; 300 μg/kg iv, no detailed analysis) | carboplatin-induced anemia (carboplatin treated mice [3]; dosed within 24 hours of chemotherapy) | deaths among mice not utilized for hematological evaluation (carboplatin treated mice [4]; combination therapy (carboplatin 70 mg/kg/day, 2 rounds, plus 100 μg/kg iv)) [mouse] | decrease in hemoglobin levels (carboplatin treated mice [1]; carboplatin alone 2×60 mg/kg ip, by Day 11) [%] | decreases in hemoglobin levels, RBC counts and hematocrits (carboplatin treated mice [2]; carboplatin alone 2×60 mg/kg ip, Days 18 and 22 compared to control groups) | body weight loss (average) (carboplatin treated mice [2]; carboplatin alone, between Days 7 and 26) | decreases in hemoglobin levels, RBC counts and hematocrits (carboplatin treated mice [3]; carboplatin alone 2×60 mg/kg ip, surviving mice (2 mice) by Day 12 compared to control groups) | deaths among mice not utilized for hematological evaluation (carboplatin treated mice [4]; carboplatin alone 70 mg/kg/day, 2 rounds) [mice]
Methoxypolyethyleneglycol20000-propionyl-L-Isoleucyl-L-Glutamyl-Glycyl-L-Prolyl-L-Threonyl-L-Leucyl-L-Arginyl-L-Glutaminyl-L-2-Naphthylalanyl-L-Leucyl-L-Alanyl-L-Alanyl-L-Arginyl-Sarcosyl-Ne-(methoxypolyethyleneglycol20000-propionyl-L-Isoleucyl-L-Glutamyl-Glycyl-L-Prolyl-L-Threonyl-L-Leucyl-L-Arginyl-L-Glutaminyl-L-2-Naphthylalanyl-L-Leucyl-L-Alanyl-L-Alanyl-L-Arginyl-Sarcosyl-)-Lysinamide ({methoxypolyethyleneglycol20000‑propionyl}-IEGPTLRQ[2Nal]LAAR[Sar]K[Sar]RAAL[2Nal]QRLTPGEI; also: dimer: positions 16-29 are the second 14-mer written in reverse, its Sar C-terminus joined to the K15 epsilon-amine, K15 is C-terminal lysinamide (NH2), methoxypolyethyleneglycol20000-propionyl also on Ile29 N-terminus) [PEGylated TPO Compound No. 1] | inhibited | inhibited | enhanced the recovery of the lost body weight | decreased the onset, frequency and severity of these signs | failed to affect carboplatin-induced changes | prevented | prevented this weight loss | appeared to delay the onset of these signs | decreased the severity and duration | prevented | did not appear to affect the weight loss | failed to affect carboplatin-induced changes | did not appear to have a dramatic effect | Prevention of carboplatin-induced anemia is observed | 1 |  |  |  |  | 
N.N.O=C([O-])C1(C(=O)[O-])CCC1.[Pt+2] [carboplatin, reference compound] |  |  |  |  |  |  |  |  |  |  |  |  |  |  |  | ~20 | approx. 18% | approximately 4% | approx. 47% | 7
